Values after ≈ are worked out from the molar mass of the structure shown. Read-outs that look alike come from different tables or passages of the source.
Legend:
[1] = Stability of human plasma within 24 h; type: in vitro ADME
Source text: (§1) The test result was shown in the following table, with MSA2 (Science. 2020, 369, eaba6098) as a reference compound.

[2] = Stability of rat liver microsome within 2 h; type: in vitro ADME
Source text: as §1

THP1 cells [3] = assay: THP1 cell growth inhibition activity; type: cell-based
Source text: as §1

THP1 cells [4] = assay: Interferon β induction assay based on THP1 cells (ELISA); type: cell-based; conditions: Homo sapiens, THP-1, compound 20 μM, 3.5 h, read-out: Secretion of IFNβ in THP1 cells, effect relative to 2′,3′-cGAMP at 20 μM (%)
Description: Secreted cytokine IFNβ was determined by ELISA. THP1 cells were inoculated in a 96-well plate (there was no serum contained in an RPMI 1640 medium), such that the number of cells in each well ranged from 5×10^5 to 7×10^5. A DMSO stock solution of 10 mM was prepared from a compound to be tested, diluted with a culture medium to a target concentration to be added into the 96-well plate containing cells (the final concentration of said compound was 20 μM, and the final volume of each well was 200 μL), and cultured at 37° C. in 5% CO2 for 3.5 h. The cells were collected at 4° C. and centrifuged at 1,000 rpm for 20 mins, and supernate was collected for ELISA determination. There were three repeated wells set in the assay. The result was shown in the following tablet, with 2′,3′-cGAMP as a positive control, where the test result was represented as a percentage of activity relative to 2′,3′-cGAMP at a concentration of 20 μM.

LogP = type: physicochemical
Source text: as §1

THP1-dual cells = assay: Luciferase assay based on THP1-dual cells; type: cell-based; conditions: final concentration of compound 10 μL (so in the source), 24 h at 37° C.
Description: (§2) THP1-dual™ (Invivogen: thpd-nfis) cells or RAW-Lucia™ (Invivogen: rawl-isg) cells were diluted using a culture medium, and 180 μL of cell suspension was sucked and inoculated in a 96-well plate, such that each well contain 1×10^5 cells. 20 μL of a compound to be tested was added into the 96-well plate (the final concentration of said compound was […], and the final volume of each well was […]) and cultured at 37° C. for 24 h. 10 μL of supernatant was sucked into a new 96-well white plate, and 50 μL of a QUANT-Luc reagent was added. After full and even mixing, a microplate reader was used immediately for determination. There were three repeated wells set in the assay. The test result was represented as agitation fold and calculated by (test well−blank well)/(negative well−blank well). The test result was in the following tablet, with 2′,3′-cGAMP as a positive control, where *** represented an agitation fold of 20 or more, ** represented an agitation fold of 10 to 20, and * represented an agitation fold of 1 to 10.

Water solubility = type: physicochemical
Source text: as §1

RAW-Lucia cells = assay: Luciferase assay based on RAW-Lucia cells; type: cell-based; conditions: 24 h at 37° C.
Description: as §2

[5] = stability of human plasma within 24 h
[6] = stability of rat liver microsome within 2 h
[7] = PBS, aqueous buffer, read-out: water solubility, PBS
[8] = water, read-out: water solubility, Water

SMILES	hPlasma @ 24 h (%) [1, 5] [%]	RLM @ 2 h (%) [2, 6] [%]	IC50 (THP1 cells [3]; Homo sapiens, THP-1) [µM]	Emax at 20 µM (THP1 cells [4]) [%]	logP (LogP; read-out: LogP)	Agitation activity in luciferase assay, THP1-dual (agitation fold) (THP1-dual cells)	solubility (Water solubility; [7]) [µg/mL]	solubility (Water solubility; [8]) [µg/mL]	Agitation activity in luciferase assay, RAW-Lucia (agitation fold) (RAW-Lucia cells)	hPlasma @ 24 h (%) [1] [%]	RLM @ 2 h (%) ([2]; rat, microsomes, 2 h)	IC50 (THP1 cells [3]) [µM]	logP (LogP)	water solubility, PBS (Water solubility) [µg/mL]	water solubility, Water (Water solubility) [µg/mL]
COc1cc2cc(C(=O)CCC(=O)O)[se]c2cc1OC [I-1, 4-(5,6-dimethoxybenzo[b]selenophene-2-yl)-4-oxobutanoic acid]	>90	>90	> 100	259	2.5	*** (*** represented an agitation fold of 20 or more)	1900 (≈ 5570 µM)	36 (≈ 106 µM)	*** (*** represented an agitation fold of 20 or more)						
COc1cc2cc(C(=O)CC(C)C(=O)O)[se]c2cc1OC (stereo not drawn) [I-2, 4-(5,6-dimethoxybenzo[b]selenophene-2-yl)-2-methyl-4-oxo-butanoic acid]	>90	>90	> 100	245	2.4	*** (*** represented an agitation fold of 20 or more)	1000 (≈ 2810 µM)	30 (≈ 84.4 µM)	*** (*** represented an agitation fold of 20 or more)						
CCC(CC(=O)c1cc2cc(OC)c(OC)cc2[se]1)C(=O)O (stereo not drawn) [I-14, 4-(5,6-dimethoxybenzo[b]selenophene-2-yl)-2-ethyl-4-oxo-butanoic acid]	>90	>90	> 100	260	2.7	*** (*** represented an agitation fold of 20 or more)	700 (≈ 1900 µM)	28 (≈ 75.8 µM)	*** (*** represented an agitation fold of 20 or more)						
COc1cc2cc(C(=O)C3CCC3C(=O)O)[se]c2cc1OC (stereo not drawn) [I-23]				273		*** (*** represented an agitation fold of 20 or more)			*** (*** represented an agitation fold of 20 or more)						
COc1cc2cc(C(=O)C3CCCCC3C(=O)O)[se]c2cc1OC (stereo not drawn) [I-24]				142		** (** represented an agitation fold of 10 to 20)			** (** represented an agitation fold of 10 to 20)						
COc1cc2cc(C(=O)CCC(=O)O)sc2cc1OC [MSA2, reference compound]										>90	>90	> 100	1.5	400 (≈ 1360 µM)	6 (≈ 20.4 µM)

From patent US12606538B2, “Benzo[b]selenophene sting regulator, preparation method and use thereof” (CHINA PHARMACEUTICAL UNIVERSITY, priority 2021, dated 2026)
